Results from patent publication US20250295711A1, “FOOD SUPPLEMENT” (FONTERRA CO-OPERATIVE GROUP LIMITED, priority 2022, published 2025).
Marks after values point to notes of the source that are not given here.

Key:
Cortisol = Cortisol (HPA axis) after stress; assay type: in vivo; conditions: stress induced; no data shown
[1] = Body weight gain of CUMS rats; assay type: in vivo, rat; conditions: FIG. 3
Description: (§1) A series of experiments were conducted using the chronic unpredictable mild stress (CUMS) rodent model. Rats were exposed daily to any two of the following mild physiological stresses selected at random: • 12 hours of water deprivation • 12 hours of food deprivation • 8 hours of damp sawdust • 24 hours of reversed light/dark cycle • 2 minutes of tail pinching • 1 hour of 60 Hz noise • 15 minutes of cage shaking • Swimming in 4° C. water for 5-10 minutes • 2 hours of restraining.
(§2) Six groups of rats were assessed: • 1. Control rats: rats raised normally without stress treatments and without nutritional or drug interventions. • 2. CUMS rats: rats subjected to the CUMS protocol but without nutritional or drug interventions. • 3. CUMS HN001: rats subjected to the CUMS protocol and given HN001. • 4. CUMS HN019: rats subjected to the CUMS protocol and given HN019. • 5. CUMS HN001+HN019: rats subjected to the CUMS protocol given both HN001 and HN019. • 6.
(§3) Baseline assessments were then conducted, including blood collection. For the next 40 days, rats in groups 2-6 were exposed to CUMS treatments to induce depression symptoms associated with stress and anxiety.
The reduced weight gain in rats exposed to CUMS was improved by administration of HN001, HN019, or both (FIG. 3). Also, there were no differences in weight gain between CUMS groups.

CUMS rats [2] = assay: Open field test in CUMS (chronic unpredictable mild stress) rats; assay type: in vivo, rat; conditions: for Total Distance Travelled in Open Field Test, After CUMS only (x ± S): after 40 days CUMS; for Total Distance Travelled in Open Field Test, After CUMS only (x ± S) / Vertical Movement (Number of Times Standing Up) in Open Field Test, After CUMS (x ± S): before intervention; for Vertical Movement (Number of Times Standing Up) in Open Field Test, After intervention (x ± S): after CUMS with intervention; for Total Distance Travelled in Open Field Test, After CUMS + intervention (x ± S): after further 40 days CUMS with intervention; for Total Distance Travelled in Open Field Test, Base line (x ± S) / Vertical Movement (Number of Times Standing Up) in Open Field Test, Base line (x ± S): before CUMS and before intervention
Description: as §1, §2, §3
(§4) Tests were then carried out to assess rat behaviours, such as the open field test and the elevated maze test (see FIG. 2). These are standard ways to measure rat stress and anxiety traits.

IL-6 = IL-6 content in serum, brain and colon of CUMS rats; assay type: in vivo, rat; conditions: for IL-6 Content, Brain / IL-6 Content, Colon: end of experiment; for IL-6 Content, serum-after intervention: after CUMS with intervention; for IL-6 Content, serum-after CUMS: before intervention
Description: as §1, §2, §3
(§5) A series of blood markers were assessed.

[3] = test system: Corticotropin Releasing Hormone (CRH); assay: Serum corticotropin releasing hormone content in CUMS rats; assay type: in vivo, rat; conditions: for Serum Corticotropin Releasing Hormone (CRH) Content, After intervention: after CUMS with intervention; for Serum Corticotropin Releasing Hormone (CRH) Content, After CUMS: before intervention
Description: as §1, §2, §3

[4] = test system: 5-HT, DA, NE, Glu, GABA, HIAA, DOPAC, HVA; assay: Neurotransmitters and their metabolites in serum and brain of CUMS rats; assay type: in vivo, rat; conditions: FIG. 6
From the text: The level of serum and brain 5-HT, DA, NE, Glu and GABA were detected at the end of the experiment (A, B, D, E, G, H, J, K, L). (C), (F) and (I) show the metabolites of monoamine neurotransmitters in brain. The results are presented as the mean±SEM (n=10). #P<0.05 compared with CUMS group.
HIAA, DOPAC and HVA, as the metabolites of 5-HT, DA and NE, were increased in rat brains after CUMS stimulation.

[5] = test system: Adrenocorticotropic Hormone (ACTH); assay: Serum adrenocorticotropic hormone content in CUMS rats; assay type: in vivo, rat; conditions: for Serum Adrenocorticotropic Hormone (ACTH) Content, After intervention: after CUMS with intervention; for Serum Adrenocorticotropic Hormone (ACTH) Content, After CUMS: before intervention
Description: as §1, §2, §3

CUMS rats [6] = assay: Elevated-plus maze test in CUMS rats; assay type: in vivo, rat; conditions: for Time in Closed Arms in Elevated Plus Maze, After intervention (x ± S) / Total Distance Travelled in Elevated Maze Test, After intervention (x ± S): after CUMS with intervention; for Time in Closed Arms in Elevated Plus Maze, After CUMS (x ± S) / Total Distance Travelled in Elevated Maze Test, After CUMS (x ± S): before intervention; for Time in Closed Arms in Elevated Plus Maze, Base line (x ± S) / Total Distance Travelled in Elevated Maze Test, Base line (x ± S): before CUMS and before intervention
Description: as §1, §2, §3, §4

TNF-α = TNF-α content in serum, brain and colon of CUMS rats; assay type: in vivo, rat; conditions: for TNF-α Content, Brain / TNF-α Content, Colon: end of experiment; for TNF-α Content, serum-after intervention: after CUMS with intervention; for TNF-α Content, serum-after CUMS: before intervention
Description: as §1, §2, §3, §5

intestinal microbiota = assay: 16S rRNA sequencing of faecal samples (gut microbiota) of CUMS rats; assay type: in vivo, rat; conditions: for CUMS-induced alterations of relative abundance at phylum level: Firmicutes, Bacteroidetes, Verrucomicrobias, Proteobacterias, Actinobacterias; for CUMS-induced changes at genus level: Lactobacillus, Eubacterium coprostanoligenes group, Lachnospiraceae-NK4A136-group; for CUMS-induced changes of relative abundance at family level: Ruminococcaceae, Lactobacillaceae, Lachnospiraceae; for Sobs, ACE, Chao1 and Shannon index (alpha-diversity): compared with CUMS group, FIG. 9; for Beta diversity, PCoA plot: in comparison with CUMS rats, FIG. 10A; for Firmicutes to Bacteroidetes ratio (F/B ratio): increased after CUMS stimulation
Description: To evaluate whether probiotics, as well as CUMS, alter intestinal microbiota, 16S rRNA sequencing of faecal samples was performed. Alpha-diversity, as measured by richness (Sobs index, Chao1 index and ACE index; see FIGS. […]), and diversity (Shannon index; see FIG. 9 D), was decreased after CUMS. Beta diversity analysis was evaluated through PCoA to assess differences in microbial composition among six groups (FIG. 10A).

brain and colon tissue = assay: HE staining of brain and colon tissues of CUMS rats; assay type: in vivo, rat; conditions: FIG. 5; for Morphology of hippocampus (DG, CA1) and cortex (P2): brain
From the text: Brain tissues included two regions from the hippocampus (Dentate Gyrus (DG) and CA1) and a region from the cortex (P2).
Brain and colon tissue were stained using the HE method. Brain tissue included two regions from the hippocampus (Dentate Gyrus (DG) and CA1) and a region from the cortex (P2). The results are shown in FIG. 5 and reveal that for the control group, neurons in hippocampal regions (dentate gyrus (DG) and Ca1) and the cortex (P2) were normal, orderly, tightly packed cells. The cells had expected morphology, homogeneous cytoplasmic staining, and no increased interstitial or abnormal changes.
For the colon tissue, control intestinal villi were arranged neatly, with normal cell morphology and no obvious damage was seen.

[7] = test system: TNF-alpha, IL-6, IL-1β and IL-18; assay: Cytokines TNF-alpha, IL-6, IL-1β and IL-18 in serum, brain tissue and colon of CUMS rats; assay type: in vivo, rat; conditions: versus CUMS
Description: as §1, §2, §3, §5

Row | Compound | Total Distance Travelled in Open Field Test, After CUMS only (x ± S) (CUMS rats [2]) | Vertical Movement (Number of Times Standing Up) in Open Field Test, After intervention (x ± S) (CUMS rats [2]) | Vertical Movement (Number of Times Standing Up) in Open Field Test, After CUMS (x ± S) (CUMS rats [2]) | Total Distance Travelled in Open Field Test, Base line (x ± S) (CUMS rats [2]) [Metres] | Vertical Movement (Number of Times Standing Up) in Open Field Test, Base line (x ± S) (CUMS rats [2]) | IL-6 Content, Brain (IL-6) | IL-6 Content, Colon (IL-6) | IL-6 Content, serum-after intervention (IL-6) | IL-6 Content, serum-after CUMS (IL-6) | Serum Corticotropin Releasing Hormone (CRH) Content, After CUMS [3] | Serum Adrenocorticotropic Hormone (ACTH) Content, After intervention [5] | Serum Adrenocorticotropic Hormone (ACTH) Content, After CUMS [5] | Time in Closed Arms in Elevated Plus Maze, After intervention (x ± S) (CUMS rats [6]) | Total Distance Travelled in Elevated Maze Test, After intervention (x ± S) (CUMS rats [6]) | Time in Closed Arms in Elevated Plus Maze, After CUMS (x ± S) (CUMS rats [6]) | Total Distance Travelled in Elevated Maze Test, After CUMS (x ± S) (CUMS rats [6]) | Time in Closed Arms in Elevated Plus Maze, Base line (x ± S) (CUMS rats [6]) [s] | Total Distance Travelled in Elevated Maze Test, Base line (x ± S) (CUMS rats [6]) [Metres] | TNF-α Content, Brain (TNF-α) | TNF-α Content, Colon (TNF-α) | also measured
1 | Bifidobacterium animalis subsp. lactis strain HN019 | 5.42 ± 3.11^a Metres | 11.63 ± 4.90^b | 4.50 ± 3.42^a | 24.65 ± 3.59 | 19.62 ± 6.80 | 19.25 ± 4.78^b pg/ml | 31.88 ± 7.83^b pg/ml | 10.19 ± 4.47^b pg/ml | 13.08 ± 4.30^a pg/ml | 5.19 ± 3.48^a pg/ml | 2.13 ± 1.88^b pg/ml | 5.53 ± 3.43^a pg/ml | 215.28 ± 17.98^b Seconds | 7.91 ± 0.65^b Metres | 288.83 ± 11.57^a Seconds | 3.08 ± 2.21^a Metres | 215.83 ± 23.30 | 9.35 ± 1.38 | 60.67 ± 6.65^b pg/ml | 71.34 ± 10.46^b pg/ml | Cortisol level (Cortisol): reduced closer to non-stressed control levels; Reduced weight gain in rats exposed to CUMS [1]: improved; Total Distance Travelled in Open Field Test, After CUMS + intervention (x ± S) (CUMS rats [2]): 12.21 ± 2.54^b Metres; Serum Corticotropin Releasing Hormone (CRH) Content, After intervention [3]: 2.47 ± 1.34^b pg/ml; Effects of CUMS on neurotransmitters (5-HT, DA, NE, Glu, GABA) and metabolites [4]: able to reverse the effects of CUMS; TNF-α Content, serum-after intervention (TNF-α): 12.08 ± 3.68^b pg/ml; TNF-α Content, serum-after CUMS (TNF-α): 23.97 ± 3.69^a pg/ml; CUMS-induced alterations of relative abundance at phylum level (intestinal microbiota): alleviated the phylum alterations; CUMS-induced changes at genus level (intestinal microbiota): improved; CUMS-induced changes of relative abundance at family level (intestinal microbiota): reversed the changes of family; Sobs, ACE, Chao1 and Shannon index (alpha-diversity) (intestinal microbiota): decreased; Beta diversity, PCoA plot (intestinal microbiota): marked differences; Firmicutes to Bacteroidetes ratio (F/B ratio) (intestinal microbiota): decreased the F/B ratio; Morphology of hippocampus (DG, CA1) and cortex (P2) (brain and colon tissue): CUMS-associated damage was largely reduced
2 | Lactocaseibacillus rhamnosus strain HN001 | 5.64 ± 2.10^a Metres | 13.57 ± 4.39^b | 3.43 ± 2.88^a | 23.43 ± 8.42 | 19.67 ± 6.26 | 20.44 ± 3.06v pg/ml | 31.56 ± 9.00^b pg/ml | 9.96 ± 4.10^b pg/ml | 14.01 ± 5.98^a pg/ml | 5.53 ± 2.77^a pg/ml | 3.12 ± 2.52^b pg/ml | 5.85 ± 3.35^a pg/ml | 220.28 ± 11.45^b Seconds | 8.61 ± 1.63^b Metres | 280.00 ± 9.58^a Seconds | 3.17 ± 1.88^a Metres | 230.69 ± 23.78 | 8.28 ± 0.81 | 61.99 ± 5.17^b pg/ml | 79.89 ± 11.48^b pg/ml | Cortisol level (Cortisol): reduced closer to non-stressed control levels; Reduced weight gain in rats exposed to CUMS [1]: improved; Total Distance Travelled in Open Field Test, After CUMS + intervention (x ± S) (CUMS rats [2]): 14.62 ± 7.97^b Metres; Serum Corticotropin Releasing Hormone (CRH) Content, After intervention [3]: 2.38 ± 1.59^b pg/ml; Effects of CUMS on neurotransmitters (5-HT, DA, NE, Glu, GABA) and metabolites [4]: able to reverse the effects of CUMS; TNF-α Content, serum-after intervention (TNF-α): 12.88 ± 4.62^b pg/ml; TNF-α Content, serum-after CUMS (TNF-α): 21.12 ± 6.40^a pg/ml; CUMS-induced alterations of relative abundance at phylum level (intestinal microbiota): alleviated the phylum alterations; CUMS-induced changes at genus level (intestinal microbiota): improved; CUMS-induced changes of relative abundance at family level (intestinal microbiota): reversed the changes of family; Sobs, ACE, Chao1 and Shannon index (alpha-diversity) (intestinal microbiota): decreased; Beta diversity, PCoA plot (intestinal microbiota): marked differences; Firmicutes to Bacteroidetes ratio (F/B ratio) (intestinal microbiota): decreased the F/B ratio; Morphology of hippocampus (DG, CA1) and cortex (P2) (brain and colon tissue): CUMS-associated damage was largely reduced
3 | CNCCC(Oc1ccc(C(F)(F)F)cc1)c1ccccc1 (stereo not drawn) [Flu, fluoxetine, reference compound] | 2.89 ± 2.15^a Metres | 11.20 ± 3.49^b | 2.00 ± 1.79^a | 23.34 ± 2.98 | 17.20 ± 8.04 | 19.35 ± 4.29^b pg/ml | 30.89 ± 7.22^b pg/ml | 9.83 ± 3.83^b pg/ml | 13.35 ± 6.46^a pg/ml | 5.50 ± 2.02^a pg/ml | 2.90 ± 2.20^b pg/ml | 5.58 ± 1.41^a pg/ml | 224.96 ± 18.71^b Seconds | 6.19 ± 1.75^b Metres | 292.57 ± 8.90^a Seconds | 2.37 ± 1.12^a Metres | 240.31 ± 16.95 | 7.44 ± 1.38 | 48.62 ± 7.26^b pg/ml | 69.09 ± 12.48^b pg/ml | Levels of cytokines TNF-alpha, IL-6, IL-1β and IL-18 [7]: reduced levels of cytokines; TNF-α Content, serum-after intervention (TNF-α): 9.83 ± 3.83^b pg/ml; TNF-α Content, serum-after CUMS (TNF-α): 23.35 ± 6.46^a pg/ml; Morphology of hippocampus (DG, CA1) and cortex (P2) (brain and colon tissue): CUMS-associated damage was largely reduced; Morphology of colon tissue (intestinal villi, mucosa) (brain and colon tissue; colon): largely reduced
